Test results from patent US20230024442A1, “BIFUNCTIONAL COMPOUNDS FOR GRADING BTK VIA UBIQUITIN PROTEOSOME PATHWAY” (NURIX THERAPEUTICS, INC., priority 2019, published 2023).

Each compound was assayed against T1, BTK (Homo sapiens, UniProt Q06187) (assay: Cellular BTK HTRF Assay (BTK levels in Ramos cells)). Conditions: Ramos cells, 50,000 cells, incubated four hours at 37° C.; BTK levels by Cisbio Total-BTK HTRF relative to DMSO-treated cells.
T1 construct: endogenous in cells; host or cells: Ramos (ATCC CRL-1596)
T1 sequence (Q06187 whole entry): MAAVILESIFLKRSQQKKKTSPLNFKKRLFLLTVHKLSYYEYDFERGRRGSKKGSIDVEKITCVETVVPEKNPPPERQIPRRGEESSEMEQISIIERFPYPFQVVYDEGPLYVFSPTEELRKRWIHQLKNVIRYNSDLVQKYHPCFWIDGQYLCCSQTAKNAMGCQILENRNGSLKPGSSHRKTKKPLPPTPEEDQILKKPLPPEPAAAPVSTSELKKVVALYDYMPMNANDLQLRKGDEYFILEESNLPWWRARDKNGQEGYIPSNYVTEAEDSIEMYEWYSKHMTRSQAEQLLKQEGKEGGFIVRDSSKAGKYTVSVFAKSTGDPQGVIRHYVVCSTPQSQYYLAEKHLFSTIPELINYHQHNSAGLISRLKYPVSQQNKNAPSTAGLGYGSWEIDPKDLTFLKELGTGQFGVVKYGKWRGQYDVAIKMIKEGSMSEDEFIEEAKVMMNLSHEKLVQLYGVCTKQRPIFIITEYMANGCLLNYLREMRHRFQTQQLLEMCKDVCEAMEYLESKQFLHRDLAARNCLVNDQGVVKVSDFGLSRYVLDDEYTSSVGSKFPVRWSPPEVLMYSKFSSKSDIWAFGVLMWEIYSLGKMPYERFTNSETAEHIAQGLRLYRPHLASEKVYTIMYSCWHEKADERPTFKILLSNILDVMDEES
Format: cell-based
Protocol: Ramos (CRL-1596) cells were obtained from American Type Culture Collection and were grown in RPMI-1640 media (ATCC, 30-2001) supplemented with 10% heat-inactivated FBS (Corning Premium Fetal Bovine Serum from Fisher, MT35015CV).
Compounds of the present invention were added to 50,000 Ramos cells in round-bottom 96 well plates with a final DMSO concentration of […] and were incubated at 37° C. 5% CO2 for four hours. BTK levels were determined using Cisbio Total-BTK HTRF ([…] Time-Resolved Fluorescence) kit (63ADK064PEG) according to manufacturer's protocol. Briefly, cells were incubated in 1× supplied lysis buffer for 30 minutes. In an opaque white low volume 96 well plate (Cisbio, 66PL96005), cell lysate was combined with two different specific BTK antibodies, one conjugated with Eu^3+-Cryptate FRET donor and one conjugated with d2 FRET acceptor. Assay controls include wells containing cell lysate with only the Eu^3+-Cryptate FRET donor antibody and wells containing both HTRF antibodies and lysis buffer without cells or control lysate provided by Cisbio. HTRF ratio was calculated as (acceptor signal at 665 nm/donor signal at 620 nm)×10^4. Background HTRF levels were determined from the control well containing the donor, but no acceptor, antibody. Background HTRF levels were subtracted from all samples. Readouts were reported as HTRF levels relative to HTRF levels of DMSO-treated cells. Four-parameter non-linear regressions were performed in GraphPad Prism 7.02 to obtain DC50 values. DC50 values are provided in Table 7, wherein A<1 nM, 1 nM≤B≤10 nM, and 10 nM<C<1 μM.
In the case of `C[C@H]1CN(C(=O)[C@H]2C[C@H](OCCCc3cccc4c3CN(C3CCC(=O)NC3=O)C4=O)C2)CCN1c1ccc(Nc2cc(-c3ccnc(N4CCn5c(cc6c5CC(C)(C)C6)C4=O)c3CO)cn(C)c2=O)nc1` (stereo partly shown) [Compound 29], the DC50 is reported as 0.001 to 0.01 µM. For `CN[C@@H](C)C(=O)N[C@H](C(=O)N1CCC[C@H]1c1nc(C(=O)c2cccc(OCCOCCOCCOCCC(=O)N3CCn4nc(Nc5cc(-c6ccnc(-n7ncc8cc(C(C)(C)C)cc(F)c8c7=O)c6CO)cn(C)c5=O)cc4C3)c2)cs1)C1CCCCC1` (stereo in doubt) [Compound 7, (S)—N—((S)-2-((S)-2-(4-(3-(2-(2-(2-(3-(2-((2′-(6-(tert-butyl)-8-fluoro-1-oxophthalazin-2(1H)-yl)-3′-(hydroxymethyl)-1-methyl-6-oxo-1,6-dihydro-[3,4′-bipyridin]-5-yl)amino)-6,7-dihydropyrazolo[1,5-a]pyrazin-5(4H)-yl)-3-oxopropoxy)ethoxy)ethoxy)ethoxy)benzoyl)thiazol-2-yl)pyrrolidin-1-yl)-1-cyclohexyl-2-oxoethyl)-2-(methylamino)propanamide], the DC50 was 0.01 to 1 µM. `C[C@H]1CN(C(=O)CN2CCN(CCCc3cccc4c3C(=O)N(C3CCC(=O)NC3=O)C4=O)CC2)CCN1c1ccc(Nc2cc(-c3ccnc(N4CCn5c(cc6c5CC(C)(C)C6)C4=O)c3CO)cn(C)c2=O)nc1` (stereo partly shown) [Compound 32] was tested, and the DC50 was 0.001 to 0.01 µM. `C[C@@H]1CN(C(=O)NCCCCCc2cccc3c2CN(C2CCC(=O)NC2=O)C3=O)CCN1c1ccc(Nc2cc(-c3ccnc(N4CCn5c(cc6c5CC(C)(C)C6)C4=O)c3CO)cn(C)c2=O)nc1` (stereo partly shown) [Compound 46] gave a DC50 of 0.001 to 0.01 µM. For `Cn1cc(-c2ccnc(-n3ncc4cc(C(C)(C)C)cc(F)c4c3=O)c2CO)cc(Nc2cc3n(n2)CCN(CCCc2cccc4c2CN(C2CCC(=O)NC2=O)C4=O)C3)c1=O` (stereo not shown) [Compound 20], the DC50 was 0.001 to 0.01 µM. For `C[C@H]1CN(C(=O)CCOCCOCCOCCOCCOCCCc2cccc3c2CN(C2CCC(=O)NC2=O)C3=O)CCN1c1ccc(Nc2cc(-c3ccnc(N4CCn5c(cc6c5CC(C)(C)C6)C4=O)c3CO)cn(C)c2=O)nc1` (stereo partly shown) [Compound 53], the DC50 was < 0.001 µM. Work on `CN[C@@H](C)C(=O)N[C@H](C(=O)N1CCC[C@H]1c1nc(C(=O)c2cccc(OCCOCCC(=O)N3CCn4nc(Nc5cc(-c6ccnc(-n7ncc8cc(C(C)(C)C)cc(F)c8c7=O)c6CO)cn(C)c5=O)cc4C3)c2)cs1)C1CCCCC1` [Compound 6, (S)—N—((S)-2-((S)-2-(4-(3-(2-(3-(2-((2′-(6-(tert-butyl)-8-fluoro-1-oxophthalazin-2(1H)-yl)-3′-(hydroxymethyl)-1-methyl-6-oxo-1,6-dihydro-[3,4′-bipyridin]-5-yl)amino)-6,7-dihydropyrazolo[1,5-a]pyrazin-5(4H)-yl)-3-oxopropoxy)ethoxy)benzoyl)thiazol-2-yl)pyrrolidin-1-yl)-1-cyclohexyl-2-oxoethyl)-2-(methylamino)propanamide] yielded a DC50 of 0.01 to 1 µM. For `Cn1cc(-c2ccnc(-n3ncc4cc(C(C)(C)C)cc(F)c4c3=O)c2CO)cc(Nc2cc3n(n2)CCN(C(=O)CN2CCN(CCCc4cccc5c4CN(C4CCC(=O)NC4=O)C5=O)CC2)C3)c1=O` (stereo not shown) [Compound 16], the DC50 was 0.01 to 1 µM. With `C[C@H]1CN(C(=O)[C@H]2CC[C@H](Nc3cccc4c3C(=O)N(C3CCC(=O)NC3=O)C4=O)CC2)CCN1c1ccc(Nc2cc(-c3ccnc(N4CCn5c(cc6c5CC(C)(C)C6)C4=O)c3CO)cn(C)c2=O)nc1` (stereo partly shown) [Compound 31] the DC50 was 0.001 to 0.01 µM. In the case of `C[C@H]1CN(C(=O)CCCN2CCN(c3cc4c(cc3F)C(=O)N(C3CCC(=O)NC3=O)C4=O)CC2)CCN1c1ccc(Nc2cc(-c3ccnc(N4CCn5c(cc6c5CC(C)(C)C6)C4=O)c3CO)cn(C)c2=O)nc1` (stereo partly shown) [Compound 58], the DC50 is reported as 0.001 to 0.01 µM. In the case of `C[C@H]1CN(CCOCCOCCOCCOCCOCCNc2cccc3c2C(=O)N(C2CCC(=O)NC2=O)C3=O)CCN1c1ccc(Nc2cc(-c3ccnc(N4CCn5c(cc6c5CC(C)(C)C6)C4=O)c3CO)cn(C)c2=O)nc1` (stereo partly shown) [Compound 39], the DC50 is reported as 0.001 to 0.01 µM. In the case of `C[C@H]1CN(C(=O)CCOCCN2CCN(CCOCCOCCNc3cccc4c3C(=O)N(C3CCC(=O)NC3=O)C4=O)CC2)CCN1c1ccc(Nc2cc(-c3ccnc(N4CCn5c(cc6c5CC(C)(C)C6)C4=O)c3CO)cn(C)c2=O)nc1` (stereo partly shown) [Compound 42], the DC50 is reported as 0.01 to 1 µM. Work on `Cn1cc(-c2ccnc(-n3ncc4cc(C(C)(C)C)cc(F)c4c3=O)c2CO)cc(Nc2cc3n(n2)CCN(C(=O)CCCN2CCN(c4cc5c(cc4F)C(=O)N(C4CCC(=O)NC4=O)C5=O)CC2)C3)c1=O` (stereo not shown) [Compound 23] yielded a DC50 of 0.001 to 0.01 µM. In the case of `Cn1cc(-c2ccnc(-n3ncc4cc(C(C)(C)C)cc(F)c4c3=O)c2CO)cc(Nc2cc3n(n2)CCN(C(=O)CCOCCNc2cccc4c2C(=O)N(C2CCC(=O)NC2=O)C4=O)C3)c1=O` (stereo not shown) [Compound 1], the DC50 is reported as 0.001 to 0.01 µM. Work on `CN[C@@H](C)C(=O)N[C@H](C(=O)N1C[C@@H](NC(=O)CCOCCOCCOCCC(=O)N2CCn3nc(Nc4cc(-c5ccnc(-n6ncc7cc(C(C)(C)C)cc(F)c7c6=O)c5CO)cn(C)c4=O)cc3C2)C[C@H]1C(=O)N[C@@H]1CCCc2ccccc21)C1CCCCC1` [Compound 5, (2S,4S)-4-(3-(2-(2-(3-(2-((2′-(6-(tert-butyl)-8-fluoro-1-oxophthalazin-2(1H)-yl)-3′-(hydroxymethyl)-1-methyl-6-oxo-1,6-dihydro-[3,4′-bipyridin]-5-yl)amino)-6,7-dihydropyrazolo[1,5-a]pyrazin-5(4H)-yl)-3-oxopropoxy)ethoxy)ethoxy)propanamido)-1-((S)-2-cyclohexyl-2-((S)-2-(methylamino)propanamido)acetyl)—N—((R)-1,2,3,4-tetrahydronaphthalen-1-yl)pyrrolidine-2-carboxamide] yielded a DC50 of 0.01 to 1 µM. For `C[C@H]1CN(C(=O)CCOCCOCCOCCOCCNc2cccc3c2C(=O)N(C2CCC(=O)NC2=O)C3=O)CCN1c1ccc(Nc2cc(-c3ccnc(N4CCn5c(cc6c5CC(C)(C)C6)C4=O)c3CO)cn(C)c2=O)nc1` (stereo partly shown) [Compound 51], the DC50 was 0.001 to 0.01 µM. With `C[C@H]1CN(C(=O)[C@H]2C[C@@H](OCCNc3cccc4c3C(=O)N(C3CCC(=O)NC3=O)C4=O)C2)CCN1c1ccc(Nc2cc(-c3ccnc(N4CCn5c(cc6c5CC(C)(C)C6)C4=O)c3CO)cn(C)c2=O)nc1` (stereo partly shown) [Compound 25] the DC50 was < 0.001 µM. Compound `Cn1cc(-c2ccnc(-n3ncc4cc(C(C)(C)C)cc(F)c4c3=O)c2CO)cc(Nc2cc3n(n2)CCN(C(=O)[C@H]2C[C@@H](OCCCc4cccc5c4CN(C4CCC(=O)NC4=O)C5=O)C2)C3)c1=O` (stereo partly shown) [Compound 17] has a DC50 of 0.01 to 1 µM. Compound `Cn1cc(-c2ccnc(-n3ncc4cc(C(C)(C)C)cc(F)c4c3=O)c2CO)cc(Nc2cc3n(n2)CCN(CCCCc2cccc4c2CN(C2CCC(=O)NC2=O)C4=O)C3)c1=O` (stereo not shown) [Compound 18] has a DC50 of 0.001 to 0.01 µM. Compound `Cn1cc(-c2ccnc(-n3ncc4cc(C(C)(C)C)cc(F)c4c3=O)c2CO)cc(Nc2cc3n(n2)CCN(C(=O)CCOCCCc2cccc4c2C(=O)N(C2CCC(=O)NC2=O)C4=O)C3)c1=O` (stereo not shown) [Compound 21] has a DC50 of 0.01 to 1 µM. In the case of `Cn1cc(-c2ccnc(-n3ncc4cc(C(C)(C)C)cc(F)c4c3=O)c2CO)cc(Nc2cc3n(n2)CCN(C(=O)CCNc2cccc4c2C(=O)N(C2CCC(=O)NC2=O)C4=O)C3)c1=O` (stereo not shown) [Compound 10], the DC50 is reported as 0.01 to 1 µM. In the case of `C[C@H]1CN(C(=O)CCCNc2cccc3c2C(=O)N(C2CCC(=O)NC2=O)C3=O)CCN1c1ccc(Nc2cc(-c3ccnc(N4CCn5c(cc6c5CC(C)(C)C6)C4=O)c3CO)cn(C)c2=O)nc1` (stereo partly shown) [Compound 37], the DC50 is reported as 0.001 to 0.01 µM.
